pIC50: −log10 of the molar value.
What was measured:
human GHS-R 1a = biological target: T1, human GHS-R 1a (Homo sapiens, UniProt Q92847); experiment: GHS-R 1a receptor-ligand binding assay (membrane preparations from transfected LLC PK-1 cells); details: displacement of 125I-His9-ghrelin (60 pM); membranes of LLC PK-1 cells transfected with human GHS-R 1a; mean of at least two independent experiments in triplicates
T1 construct: expressed in transfected cells; host or cells: LLC PK-1 porcine renal epithelial cells (ECACC No. 86121112), isolated plasma membranes
T1 sequence (Q92847 whole entry): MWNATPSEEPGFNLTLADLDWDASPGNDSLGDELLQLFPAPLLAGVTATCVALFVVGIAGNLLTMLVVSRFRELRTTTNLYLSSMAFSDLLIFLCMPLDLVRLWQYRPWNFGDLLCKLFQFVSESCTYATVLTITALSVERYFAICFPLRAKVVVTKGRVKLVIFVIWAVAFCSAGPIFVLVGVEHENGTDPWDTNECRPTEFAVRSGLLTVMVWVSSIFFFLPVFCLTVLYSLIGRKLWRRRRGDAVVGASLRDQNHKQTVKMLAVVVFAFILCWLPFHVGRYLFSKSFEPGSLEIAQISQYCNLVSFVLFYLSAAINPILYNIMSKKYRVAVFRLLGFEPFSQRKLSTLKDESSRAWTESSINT
Outline: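 Membranes from LLC PK-1 cells expressing human GHS-R 1a incubated 60 min at 25 °C in 50 mM Tris pH 7.3, 5 mM MgCl2, 2.5 mM EDTA, bacitracin with 60 pM 125I-ghrelin and competitor; nonspecific binding with 10^-6 M ghrelin; filtration read-out.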

[1] = tested on: GH concentration in the plasma of male rat pups; experiment: In vivo GH concentration in the plasma of male rat pups; design: species or system rat (Sprague-Dawley); details: rat pup plasma, killed 15 min later
Procedure: IV) Assaying In Vivo GH Concentration in the Plasma of Male Rat Pups
GH plasma concentrations of male rat pubs were assayed to characterize the modulation effect (antagonistic or agonistic) of the compounds of the invention being GHS receptor analogue ligands.
In principle, assaying in vivo GH concentration in rat plasma was performed according to Torsello et al. (Eur. J. Pharmacol. 1998, 360: 123-129).
Male Sprague-Dawley rat pups (Charles River, Calco, Italy) were separated on postnatal day seven from their mothers and randomly redistributed to the dams, so that each one nurtured ten to twelve pups. On postnatal day ten, the pups were again separated from their mothers.
The compounds to be tested were dissolved in solvent [DMSO (0.4% of total volume), distilled water (4% of total volume), brought to the final volume with physiological saline].
One hour after separation from their mothers, the pups were given isovolumetric amounts of the compounds to be tested (160 μg/kg body weight s.c.) at time −10 min and then administered with hexarelin (80 μg/kg body weight s.c.) or solvent at time 0 min before being killed 15 min later by decapitation. Trunk blood was collected, immediately centrifuged and plasma samples were stored at −20° C. until assayed for the determination of GH concentrations.
Plasma GH concentrations were measured using a rat growth hormone enzyme immunoassay kit (SPIbio, France, cat. no. 589601) according to the manufacturer's instructions. Values are expressed in terms of NIDDK rat-GH-RP2 standard (potency 2 IU/mg) as ng/mL of plasma
The limit of detection calculated as the concentration producing 15% displacement of initial tracer was 0.5 ng/ml; intra-assay and inter-assay coefficient of variation are 4% (n=24) and 14% (n=9).
In the following table 3 results obtained for selected compounds of the invention are presented.

[2] = tested on: young-adult male Sprague-Dawley rats; experiment: Feeding behavior (food intake) of young-adult male rats; type: in vivo, rat (Sprague-Dawley)
Procedure: V) Assaying the Feeding Behavior (Food Intake) of Young-Adult Male Rats
The impact of compounds of the invention being GHS receptor analogue ligands on the feeding behaviour, i.e. food intake, of young-adult male rats was assayed.
In principle, assaying the feeding behavior (food intake) of young-adult male rats was performed according to Torsello et al. (Eur. J. Pharmacol. 1998, 360: 123-129).
For the assay, young-adult male Sprague-Dawley rats (Charles River, Calco, Italy), weighing 200-250 g, were used.
Rats had 1 week of acclimation in individual home cages, and animal room conditions (22±2° C., 65% humidity, artificial light from 08.00 to 20.00 h). The following week, they were daily trained to mimic the experimental procedure. Rats maintained free access to dry pellets and tap water throughout the whole experimental period. At the end of training, rats were administered (around 10.00-11.00 a.m.) subcutaneously with the compounds to be tested (160 μg/kg body weight) and/or hexarelin (80 μg/kg body weight) and/or solvent [DMSO (0.4% of total volume), distilled water (4% of total volume), brought to the final volume with physiological saline].
Hexarelin was used to study the effects of the compounds to be tested on stimulated feeding behavior. Immediately after the injections, the animals were returned to their home cages, which contained a known amount of standard rat chow and ad libitum water. Every hour for the following 6 hours, the remaining food was carefully collected and weighed to the nearest 0.1 g. Food intake was normalized for the body weight of the rats and expressed as grams of food eaten per 100 g body weight of rats.
In the following table 4 results obtained for selected compounds of the invention are presented.

[3] = biological target: T2, Motilin-Receptor 1a (MTL-R1a) (Homo sapiens, UniProt O43193); experiment: Motilin receptor-ligand binding assay (human recombinant HEK-293 cells); details: 0.1 nM [125I] Motilin, read-out: MTL-R 1a IC50
T2 construct: expressed in transfected cells; host or cells: HEK-293 cells
T2 sequence (O43193 whole entry): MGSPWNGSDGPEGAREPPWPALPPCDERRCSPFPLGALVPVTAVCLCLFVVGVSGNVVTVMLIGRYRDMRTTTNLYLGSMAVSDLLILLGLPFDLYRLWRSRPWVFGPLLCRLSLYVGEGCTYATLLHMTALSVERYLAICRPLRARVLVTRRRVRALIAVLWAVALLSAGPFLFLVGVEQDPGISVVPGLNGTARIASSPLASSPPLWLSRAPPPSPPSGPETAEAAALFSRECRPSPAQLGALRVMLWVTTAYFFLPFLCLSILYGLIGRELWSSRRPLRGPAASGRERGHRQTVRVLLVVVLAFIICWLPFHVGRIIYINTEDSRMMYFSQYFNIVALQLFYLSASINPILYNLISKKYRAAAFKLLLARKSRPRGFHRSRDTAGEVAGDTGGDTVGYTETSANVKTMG
Procedure: VI) Motilin Receptor-Ligand Binding Assay (Using Human Recombinant HEK-293 Cells)
Motilin Receptor binding/affinity studies were performed as described by Feighner S D et al. (Science 1999, 284: 2184-2188). The assays were run under the following conditions:
Compounds of the invention were tested in concentrations comprising 0.01 μM, 0.1 μM, 1 μM and 10 μM.
IC50 values were determined by a non-linear, least square regression analysis using Data Analysis Toolbox (MDL Information Systems, USA).
In the following table 5 results obtained for selected compounds of the invention are presented.

[4] = tested on: rats with adjuvant induced arthritis; experiment: Anti-cachectic effects in an adjuvant-induced arthritis model system; type: in vivo, rat; details: arthritic rats, 0.1 μg/kg/day s.c.
Description: VII) Study of Anti-Cachectic Effects in an Adjuvant-Induced Arthritis Model System
The effectiveness of compounds of the invention in the treatment of cachexia was investigated according to Ibanez de Caceres I et al. (J Endocrinol. 2000, 165(3): 537-544) using a cachexia model system (Roubenoff R et al., Arthritis Rheum. 1997, 40(3): 534-539).

[5] = compound 160 μg/kg s.c. at -10 min + hexarelin 80 μg/kg s.c. at 0 min
[6] = compound alone 160 μg/kg body weight s.c. at -10 min, solvent at 0 min
[7] = compound 160 μg/kg s.c. + hexarelin 80 μg/kg s.c.
[8] = compound alone, 160 μg/kg body weight s.c.

COc1ccc(Cn2c(CCc3c[nH]c4ccccc34)nnc2[C@@H](Cc2c[nH]c3ccccc23)NC(=O)c2cnccn2)c(OC)c1 [compound 71, (R)—N-(1-(5-(2-(1H-indol-3-yl)ethyl)-4-(2,4-dimethoxybenzyl)-4H-1,2,4-triazol-3-yl)-2-(1H-indol-3-yl)ethyl)pyrazine-2-carboxamide]
pIC50 (human GHS-R 1a): 7.72 | GH concentration [1, 5]: 173.611 ± 18.444 ng/mL | GH concentration [1, 6]: 15.326 ± 1.355 ng/mL | Cumulative food intake (after 2 hours) [2, 7]: 0.117 ± 0.074 g food/100 g body weight | Cumulative food intake (after 6 hours) [2, 7]: 0.20 ± 0.01 g food/100 g body weight | Cumulative food intake (after 2 hours) [2, 8]: 0.522 ± 0.283 g food/100 g body weight | Cumulative food intake (after 6 hours) [2, 8]: 0.53 ± 0.28 g food/100 g body weight

COc1ccc(Cn2c(CCc3c[nH]c4ccccc34)nnc2[C@@H](Cc2c[nH]c3ccccc23)NC(=O)[C@H]2CCCN2)cc1 [compound 90, (R)—N—((R)-1-(5-(2-(1H-indol-3-yl)ethyl)-4-(4-methoxybenzyl)-4H-1,2,4-triazol-3-yl)-2-(1H-indol-3-yl)ethyl)pyrrolidine-2-carboxamide]
pIC50 (human GHS-R 1a): 7.55 | GH concentration [1, 5]: 218.844 ± 19.723 ng/mL | GH concentration [1, 6]: 16.857 ± 2.152 ng/mL | Cumulative food intake (after 2 hours) [2, 7]: 0.054 ± 0.041 g food/100 g body weight | Cumulative food intake (after 6 hours) [2, 7]: 0.069 ± 0.041 g food/100 g body weight | Cumulative food intake (after 2 hours) [2, 8]: 0.014 ± 0.001 g food/100 g body weight | Cumulative food intake (after 6 hours) [2, 8]: 0.035 ± 0.003 g food/100 g body weight

COc1ccc(Cn2c(CCc3ccccc3)nnc2[C@@H](Cc2c[nH]c3ccccc23)NC(=O)c2ccccn2)c(OC)c1 [compound 64, (R)—N-(1-(4-(2,4-dimethoxybenzyl)-5-phenethyl-4H-1,2,4-triazol-3-yl)-2-(1H-indol-3-yl)ethyl)picolinamide]
pIC50 (human GHS-R 1a): 8.96 | GH concentration [1, 5]: 138.394 ± 14.580 ng/mL | GH concentration [1, 6]: 13.056 ± 2.169 ng/mL | Cumulative food intake (after 2 hours) [2, 7]: 0.012 ± 0.004 g food/100 g body weight | Cumulative food intake (after 6 hours) [2, 7]: 0.021 ± 0.007 g food/100 g body weight | Cumulative food intake (after 2 hours) [2, 8]: 0.012 ± 0.008 g food/100 g body weight | Cumulative food intake (after 6 hours) [2, 8]: 0.039 ± 0.011 g food/100 g body weight | pIC50 [3]: 5.86

CC(C)(N)C(=O)N[C@H](Cc1c[nH]c2ccccc12)c1nnc(CCCc2c[nH]c3ccccc23)n1Cc1ccccc1 [compound 9, (R)—N-(1-(5-(3-(1H-indol-3-yl)propyl)-4-benzyl-4H-1,2,4-triazol-3-yl)-2-(1H-indol-3-yl)ethyl)-2-amino-2-methylpropanamide]
pIC50 (human GHS-R 1a): 7.34 | GH concentration [1, 5]: 183.562 ± 16.729 ng/mL | GH concentration [1, 6]: 13.016 ± 1.960 ng/mL | Cumulative food intake (after 2 hours) [2, 7]: 0.0104 ± 0.0032 g food/100 g body weight | Cumulative food intake (after 6 hours) [2, 7]: 0.0231 ± 0.0032 g food/100 g body weight | Cumulative food intake (after 2 hours) [2, 8]: 0.01 ± 0 g food/100 g body weight | Cumulative food intake (after 6 hours) [2, 8]: 0.01 ± 0 g food/100 g body weight

COc1ccc(Cn2c(CCc3c[nH]c4ccccc34)nnc2[C@@H](Cc2c[nH]c3ccccc23)NC(=O)C(C)(C)N)cc1 [compound 12, (R)—N-(1-(5-(2-(1H-indol-3-yl)ethyl)-4-(4-methoxybenzyl)-4H-1,2,4-triazol-3-yl)-2-(1H-indol-3-yl)ethyl)-2-amino-2-methylpropanamide]
pIC50 (human GHS-R 1a): 8.22 | GH concentration [1, 5]: 200.0 ± 19.7 ng/mL | GH concentration [1, 6]: 4.0 ± 0.12 ng/mL | Cumulative food intake (after 2 hours) [2, 7]: 0.13 ± 0.07 g food/100 g body weight | Cumulative food intake (after 6 hours) [2, 7]: 0.48 ± 0.22 g food/100 g body weight | Cumulative food intake (after 2 hours) [2, 8]: 0.034 ± 0.011 g food/100 g body weight | Cumulative food intake (after 6 hours) [2, 8]: 0.06 ± 0.019 g food/100 g body weight

COc1ccc(Cn2c(CCc3ccccc3)nnc2[C@@H](Cc2c[nH]c3ccccc23)NC(=O)C2CCNCC2)cc1 [compound 44, (R)—N-(1-(4-(4-methoxybenzyl)-5-phenethyl-4H-1,2,4-triazol-3-yl)-2-(1H-indol-3-yl)ethyl)piperidine-4-carboxamide]
pIC50 (human GHS-R 1a): 9.22 | GH concentration [1, 5]: 100.52 ± 12.112 ng/mL | GH concentration [1, 6]: 87.520 ± 15.066 ng/mL | Cumulative food intake (after 2 hours) [2, 7]: 1.2667 ± 0.1319 g food/100 g body weight | Cumulative food intake (after 6 hours) [2, 7]: 1.4033 ± 0.1177 g food/100 g body weight | Cumulative food intake (after 2 hours) [2, 8]: 0.43 ± 0.0721 g food/100 g body weight | Cumulative food intake (after 6 hours) [2, 8]: 0.7075 ± 0.1471 g food/100 g body weight | pIC50 [3]: 5.79 | Body weight change, Day 3 ([4]; Day 3, mean of 6 animals): −5.32 gram | Body weight change, Day 6 ([4]; Day 6, mean of 6 animals): 2.98 gram | Body weight change, Day 10 ([4]; Day 10, mean of 6 animals): 14.92 gram | Body weight change, Day 13 ([4]; Day 13, mean of 6 animals): 19.08 gram | Body weight change, Day 15 ([4]; Day 15, mean of 6 animals): 7.05 gram | Body weight change, Day 17 ([4]; Day 17, mean of 6 animals): 1.47 gram

Reference: US8710089B2, “Triazole derivatives as ghrelin analogue ligands of growth hormone secretagogue receptors” (Zentaris GmbH, priority 2005, dated 2014)
